These results are taken from patent US20220197161A1, “ELECTROPHOTOGRAPHIC PHOTOCONDUCTOR, METHOD OF MANUFACTURING THE SAME, AND ELECTROPHOTOGRAPHIC EQUIPMENT” (FUJI ELECTRIC CO., LTD., priority 2020, published 2022).

The series can be described thus: solubility SETM (THF): mass of tetrahydrofuran required to dissolve 1 g of the azoquinone derivative. The class given is physicochemical. The settings on record: mass (g) of tetrahydrofuran required to dissolve 1 g of the azoquinone derivative. From the text: The solubility SETM (THF) of the azoquinone derivative having a structure represented by the general formula (ET1) (the mass (g) of tetrahydrofuran required to dissolve 1 g of the azoquinone derivative) preferably satisfies the following inequality:
For the azoquinone derivative having a structure represented by the general formula (ET1) in a preferred embodiment, the solubility SETM (THF), as represented by the mass (g) of tetrahydrofuran required to dissolve 1 g of the electron transport materials), of the electron transport materials also satisfies the following inequality:
The solubility SETM (THF) of the azoquinone derivative, as represented by the mass (g) of tetrahydrofuran required to dissolve 1 g of the azoquinone derivative having a structure represented by the above structural formula (ET1-4)), was 1 (g).

Structures are written as SMILES.

As for `CC(C)(C)C1=CC(=CN=Nc2c(Cl)cccc2Cl)C=C(C(C)(C)C)C1=O` [ET1-3], the “solubility SETM (THF)” value is no more than 1 g. Turning to `CC(C)(C)C1=CC(=CN=Nc2cc(Cl)ccc2Cl)C=C(C(C)(C)C)C1=O` [ET1-4], the “solubility SETM (THF)” value stood at 1 g. Turning to `CC(C)(C)C1=CC(=CN=Nc2c(Cl)cc(Cl)cc2Cl)C=C(C(C)(C)C)C1=O` [ET1-5], the “solubility SETM (THF)” value is 1 g. Take `CC(C)(C)C1=CC(=CN=Nc2ccc(Cl)cc2)C=C(C(C)(C)C)C1=O` [ET-1]: the “solubility SETM (THF)” value is listed as 3 g. The figure for `CC(C)(C)C1=CC(=CN=Nc2ccc(F)cc2F)C=C(C(C)(C)C)C1=O` [ET-2] is 15 g; for `CC(C)(C)C1=CC(=CN=Nc2c(F)c(F)c(F)c(F)c2F)C=C(C(C)(C)C)C1=O` [ET-3] it is 22 g.
